Where two headings read alike, the source gives them in different places.
What was measured:
[1] = Cystine reactivity assay; settings: 30° C., percentage of 3 mM cysteamine
Description: Cystine reactivity was assessed by incubating 3 mM test compound with 100 nM BODIPY® FL L-Cystine (Life Tech.) at 30° C., pH 7.4 in phosphate buffer. […] Compound cystine reactivity was expressed as a percentage of that of 3 mM cysteamine.
Under resting conditions, the inherent fluorescence of BODIPY® FL L-cystine was very low due to the spatial proximity of the two BODIPY molecules causing quenching. Under chemical reaction (disruption of the S—S bond), the spatial distance was increased, the quenching lost, and measured fluorescence increased. Time (minutes) vs. fluorescence (relative fluorescence units—RFU) was plotted and linear regression analysis was performed to generate a slope value corresponding to the reaction rate in RFU/min and an R2 value.

[2] = tested on: cystinotic human fibroblasts; assay: Cystine depletion assay; format: cell-based; settings: Homo sapiens, Fibroblast, 1 h, relative to cystine depletion by cysteamine (100%) at a similar concentration
Description: The ability of test compounds to deplete cystine from cystinotic human fibroblasts (Coriell) was determined by incubating compounds with cells for 60 min at 37° C., 95% (v/v) air/5% (v/v) CO2 in Minimal Essential Media Eagle. Treated cell samples were subsequently harvested, then homogenized to ensure plasma and lysosomal membrane disruption. Protein was removed by acid precipitation and cystine in the supernatant measured using LC-MS/MS and HILIC chromatography. Protein levels were determined and cystine levels reported as nM per mg/ml protein. Cystine levels after test compound treatment were expressed as a percentage of that of untreated control cells.
Compounds were assayed at a concentration of 50 μM or 100 μM according to the general methods described above.
Cystine depletion levels for the compounds are expressed in Table 4 as a percent relative to the cystine depletion achieved by cysteamine (c.f. cysteamine 100%) at a similar concentration.
Cystine depletion levels for each of the compounds in Table 5 are expressed as a percent relative to the cystine depletion achieved by cysteamine (c.f. cysteamine 100%) at a similar concentration.

[3] = target: T1, human recombinant ADO (Homo sapiens, UniProt Q96SZ5); format: in vitro ADME; settings: human, 15 mM
T1 sequence (Q96SZ5 1-270): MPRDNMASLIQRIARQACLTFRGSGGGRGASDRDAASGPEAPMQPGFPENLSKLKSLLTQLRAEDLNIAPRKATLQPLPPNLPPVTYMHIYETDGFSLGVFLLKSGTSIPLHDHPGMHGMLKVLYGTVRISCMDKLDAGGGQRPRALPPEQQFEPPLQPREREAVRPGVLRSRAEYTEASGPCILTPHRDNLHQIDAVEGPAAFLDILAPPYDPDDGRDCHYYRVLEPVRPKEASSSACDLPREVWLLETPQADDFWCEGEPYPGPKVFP
Description: The rate of ADO metabolism was determined by incubating 15 mM test compound with 60 μg/ml human recombinant ADO and 20 nM MitoXpress® O2-sensitive fluorescent probe (Luxcel) at 37° C. in assay buffer/salt in a sealed assay chamber. The initial rate of fluorescence (excitation λ380 nm and emission λ650 nm) increase was used to measure ADO-dependent oxygen depletion activity. The ability of ADO to metabolize compounds and concomitantly consume oxygen was expressed relative to that of 15 mM cysteamine.

[4] = tested on: St-HdhQ^111/111 cells; assay: Glutamate-induced neuronal excitotoxicity assay; format: cell-based; settings: STHdhQ111, 6 mM L-glutamate 24 hours, % of effect of 100 μM cysteamine; for viability at 10 µM: read-out: HdhQ^111/111 cell % survival (mean ± STD) Test Conc. 10 μM; for viability at 100 µM: read-out: HdhQ^111/111 cell % survival (mean ± STD) Test Conc. 100 μM
Description: The ability of test compounds to inhibit glutamate-induced excitotoxicity (neuroprotection) in St-HdhQ^111/111 cells was determined by incubating compounds with cells for 60 min at 33° C., 95% (v:v) air/5% (v:v) CO2 in Dulbecco's Modified Eagle Media. Following this, excitotoxicity was induced by the addition of 6 mM L-glutamate for 24 hours. Cell viability was assessed by measuring ATP levels using a luminescent-based CellTitre Glo assay (Promega). Compound neuroprotection (% cell survival) was expressed as a % of the effect recorded with 100 μM cysteamine (denoted as 100% cell survival).

[5] = Table 4, read-out: Cystine Depletion (%)
[6] = Table 5, read-out: Cystine Depletion (%) Mean Value

Structure (SMILES) | Cystine Reactivity Assay (30° C.) (%) Mean Value ([1]; Table 4) | Emax [2, 5] | viability at 10 µM [4] | viability at 100 µM [4] | Emax [2, 6] | other results
CCN1CCC(S)CC1 [Compound 42391] | >90% | 60% |  |  |  | 
CC(C)N1CCC(S)CC1 [Compound 42458] | >90% | 91% |  |  |  | 
N[C@H]1CC[C@@H](S)CC1 [Compound 42491] | <50% |  |  |  |  | ADO Metabolism Assay (%) Mean Value [3]: <25%
N[C@H]1CC[C@H](S)CC1 [Compound 42492] | <50% |  |  |  |  | 
CC1(C)CNCCC1S (centres unmarked) [Compound 42609] |  | 17% |  |  |  | 
N[C@@H]1CCCC[C@@H]1S [Compound 42610] | >90% | 91% | 19 ± 6% | 77 ± 8% |  | 
C[C@H]1CCNC[C@@H]1S [Compound 42612] |  | 98% |  |  |  | 
C[C@H]1C[C@@H](S)CCN1 [Compound 42618] |  | 49% |  |  |  | 
NC1CCC(S)C1 (centres unmarked) [Compound 42691] | 50-90% |  |  |  |  | 
N[C@@H]1CCCC[C@H]1S [Compound 42692] | >90% | 100% | 82 ± 4% | 71 ± 5% |  | 
N[C@H]1CCCC[C@@H]1S [Compound 42693] | >90% | 110% | 80 ± 10% | 77 ± 9% |  | 
FC1(F)CCNC[C@@H]1S [Compound 42694] | <50% | 20% |  |  |  | 
N[C@H]1C[C@H](S)C1 [Compound 142460] |  |  |  |  | 78% | Cystine Reactivity Assay (30° C.) (%) Mean Value ([1]; Table 5): 50-90%
O=c1[nH][se]c2ccccc12 [Compound 145565] |  |  |  |  | 31% | 
SCC1CNC1 [Compound 145585] |  |  | 13 ± 10% | 100 ± 9% | 11% | Cystine Reactivity Assay (30° C.) (%) Mean Value ([1]; Table 5): >90%
SC[C@@H]1CCCCN1 [Compound 145592] |  |  | 17 ± 10% | 88 ± 8% | 156% | Cystine Reactivity Assay (30° C.) (%) Mean Value ([1]; Table 5): >90%
C1CNC[C@H](SS[C@@H]2CCCNC2)C1 [Compound 145609] |  |  |  |  | 121% | ADO Metabolism Assay (%) Mean Value [3]: <25%
CSC1(C)CCNCC1 [Compound 145691] |  |  |  |  | 0% | 
CC(=O)SC1CCNCC1 [Compound 145692] |  |  |  |  | 75% | 
FC1(F)CN[C@@H](CS)C1 [Compound 149607] |  |  | 32 ± 9% | 98 ± 12% | 17% | Cystine Reactivity Assay (30° C.) (%) Mean Value ([1]; Table 5): >90%
FC1(F)CN[C@H](CS)C1 [Compound 149611] |  |  | 35 ± 13% | 102 ± 13% | 27% | Cystine Reactivity Assay (30° C.) (%) Mean Value ([1]; Table 5): >90%
CC1(S)CCNC1 (centres unmarked) [Compound 150731] |  |  |  |  | 58% | Cystine Reactivity Assay (30° C.) (%) Mean Value ([1]; Table 5): >90%
C[C@]1(S)CCCNC1 [Compound 151181] |  |  | 3 ± 8% | 90 ± 9% | 69% | Cystine Reactivity Assay (30° C.) (%) Mean Value ([1]; Table 5): 50-90%
C[C@@]1(S)CCCNC1 [Compound 151182] |  |  | 1 ± 5% | 85 ± 11% | 59% | Cystine Reactivity Assay (30° C.) (%) Mean Value ([1]; Table 5): 59-90%
N[C@H]1C[C@@H](SS[C@H]2C[C@@H](N)C2)C1 [Compound 151270] |  |  |  |  | 3% | 
N[C@H]1C[C@H](SS[C@H]2C[C@H](N)C2)C1 [Compound 151271] |  |  |  |  | 27% | 
CC1(SSC2(C)CCNCC2)CCNCC1 [Compound 151272] |  |  |  |  | 11% | 
CC1(S)CC(N)C1 (centres unmarked) [Compound 152071] |  |  |  |  | 70% | 

Source: patent US10906904B2, “ADO-resistant cysteamine analogs and uses thereof” (HORIZON ORPHAN LLC, priority 2015, dated 2021)
